Positions of bridges follow the written chain, without caps; N, C: chain ends. Residues, ends and D or L forms follow the SMILES beside them. No end group written: not given here.
Assays:
[1] = test system: N. farcinica ATCC 3318; assay: Colony forming unit (CFU) assay against N. farcinica; type: cell-based, Nocardia farcinica; conditions: for LD90: lowest concentration leading to 90% reduction of CFU, 1 × 10^7 CFU/ml in 10 mM sodium phosphate buffer pH 7.4 + 1% MHB, means of at least four (levofloxacin, HNP 1-3, LL-37, hBD-3) or two (indolicidin, LAP, TAP) independent experiments
Experimental: (§1) Four strains of the genus Nocardia were investigated: Nocardia farcinica (ATCC 3318), Nocardia nova (ATCC 33726), Nocardia asteroides (ATCC 19247) and Nocardia brasiliensis (ATCC 19296). Strains were grown on Columbia blood agar for at least 72 hours at 37°C. Then 30 ml of Mueller-Hinton-broth (MHB) supplemented with 1% Tween 80 (Serva, Heidelberg, Germany) was inoculated with one loop of bacteria scraped off the agar plates. MHB was incubated in a shake incubator (220 rpm at 37°C). 10 ml of the culture was transferred to a 50 ml tube which contained 1 mm glass beads (BioSpec Products, Bartlesville, USA). After vortexing for 10-15 seconds a homogenous suspension could be gained. A few millilitres of the suspension were used to inoculate another 50 ml of MHB (also supplemented with 1% Tween 80). Cultures were incubated until mid-logarithmic phase was reached. Incubation times were different for each Nocardia species (N. farcinica 12 h, N. nova 24 h, N. asteroides 16 h, N. brasiliensis 72 h).
(§2) A colony forming unit (CFU) assay was established and performed to test AMP susceptibility. Mid-logarithmic growth phase cultures were washed twice in 10 mM sodium phosphate buffer (ph 7.4). A standard inoculum of 1 × 10^7CFU/ml in 10 mM sodium phosphate buffer supplemented with 1% MHB was prepared. 80 μl of the standard inoculum were incubated with 20 μl of the respective concentrations of the antimicrobial agents in the shake incubator at 37°C for 12 h (N. farcinica) to 16 h (N. nova, N. asteroides and N. brasiliensis). Incubation was carried out in 2 ml tubes (Eppendorf, Hamburg, Germany) which were occluded by LidBacs (Eppendorf, Hamburg, Germany) to avoid contamination and provide constant aerobic conditions. After incubation serial dilutions were plated on Mueller-Hinton agar plates and visible colonies were counted after 48-72 hours of incubation at 37°C. Killing was expressed in percentage of bacteria that were killed by incubation with respective peptide concentrations compared to incubation with solvent of the antibacterial substance (0,01% acetic acid or water). LD90 denotes the lowest peptide concentration leading to a =90% reduction of CFU counts. […] Killing activity (CFU counts after incubation with solvent vs. CFU counts after incubation with highest concentration of AMPs or levofloxacin) was analysed by Student's t-test. A p-value < 0.05 was considered significant.

[2] = test system: N. brasiliensis ATCC 19296; assay: Colony forming unit (CFU) assay against N. brasiliensis; type: cell-based, Nocardia brasiliensis; conditions: for antinocardial activity (in words) / growth of N. brasiliensis after incubation (in words): CFU assay; for antinocardial activity (in words): concentrations up to 64 μg/ml; for growth of N. brasiliensis after incubation (in words): data not shown; for LD90: lowest concentration leading to 90% reduction of CFU, 1 × 10^7 CFU/ml in 10 mM sodium phosphate buffer pH 7.4 + 1% MHB, means of at least four or two (indolicidin, LAP, TAP) independent experiments
Experimental: as §1, §2

[3] = test system: N. asteroides ATCC 19247; assay: Colony forming unit (CFU) assay against N. asteroides; type: cell-based, Nocardia asteroides; conditions: for antinocardial activity (in words): CFU assay; for LD90: lowest concentration leading to 90% reduction of CFU, 1 × 10^7 CFU/ml in 10 mM sodium phosphate buffer pH 7.4 + 1% MHB, means of at least four or two (indolicidin) independent experiments
Experimental: as §1, §2

[4] = test system: N. nova ATCC 33726; assay: Colony forming unit (CFU) assay against N. nova; type: cell-based, Nocardia nova; conditions: for antinocardial activity (in words): CFU assay; for antinocardial activity (in words) / LD90: 16 h; for LD90: lowest concentration leading to 90% reduction of CFU, 1 × 10^7 CFU/ml in 10 mM sodium phosphate buffer pH 7.4 + 1% MHB, 37°C, means of at least four or two (indolicidin) independent experiments; for killing/CFU reduction in percent ± SD: ATCC 33726, 16 h
Experimental: as §1, §2

[5] = at the LD90 concentration, 12 h, 37°C, mean ± SD of at least four or two (indolicidin, LAP, TAP) independent experiments
[6] = at the LD90 concentration, 16 h, 37°C, mean ± SD of at least four or two (indolicidin) independent experiments

Compound | CFU reduction ([1]; 16 μg/ml peptide alone, single assay (Figure 2)) [%] | antinocardial activity (in words) ([2]; 16 h) | growth of N. brasiliensis after incubation (in words) ([2]; 16 h) | LD90 ([2]; 37°C, 16 h) [µg/mL] | antinocardial activity (in words) ([3]; 16 h) | LD90 ([3]; 37°C, 16 h) [µg/mL] | antinocardial activity (in words) [4] | LD90 [4] [µg/mL] | antinocardial activity (in words) ([1]; CFU assay, 12 h) | killing/CFU reduction in percent ± SD [1, 5] [%] | LD90 ([1]; 37°C, 12 h) [µg/mL] | killing/CFU reduction in percent ± SD [2, 6] [%] | killing/CFU reduction in percent ± SD [3, 6] [%] | killing/CFU reduction in percent ± SD ([1]; ATCC 3318, 12 h) [%] | killing/CFU reduction in percent ± SD ([2]; ATCC 19296, 16 h) [%] | killing/CFU reduction in percent ± SD ([3]; ATCC 19247, 16 h) [%] | killing/CFU reduction in percent ± SD [4] [%]
CC[C@H](C)[C@H](NC(=O)[C@H](CCCCN)NC(=O)[C@H](CCC(=O)O)NC(=O)[C@H](CCCCN)NC(=O)[C@H](CO)NC(=O)[C@H](CCCCN)NC(=O)[C@H](CCCNC(=N)N)NC(=O)[C@H](Cc1ccccc1)NC(=O)[C@H](Cc1ccccc1)NC(=O)[C@H](CC(=O)O)NC(=O)CNC(=O)[C@H](CC(C)C)NC(=O)[C@@H](N)CC(C)C)C(=O)NCC(=O)N[C@@H](CCCCN)C(=O)N[C@@H](CCC(=O)O)C(=O)N[C@@H](Cc1ccccc1)C(=O)N[C@@H](CCCCN)C(=O)N[C@@H](CCCNC(=N)N)C(=O)N[C@H](C(=O)N[C@H](C(=O)N[C@@H](CCC(N)=O)C(=O)N[C@@H](CCCNC(=N)N)C(=O)N[C@H](C(=O)N[C@@H](CCCCN)C(=O)N[C@@H](CC(=O)O)C(=O)N[C@@H](Cc1ccccc1)C(=O)N[C@@H](CC(C)C)C(=O)N[C@@H](CCCNC(=N)N)C(=O)N[C@@H](CC(N)=O)C(=O)N[C@@H](CC(C)C)C(=O)N[C@H](C(=O)N1CCC[C@H]1C(=O)N[C@@H](CCCNC(=N)N)C(=O)N[C@H](C(=O)N[C@@H](CCC(=O)O)C(=O)N[C@@H](CO)C(=O)O)[C@@H](C)O)C(C)C)[C@@H](C)CC)C(C)C)[C@@H](C)CC [LL-37] | 68.5 | resistant | stronger growth | >64 | did not show antinocardial activity | >64 | more potent against N. nova than levofloxacin | 32 |  |  |  |  |  |  |  |  | 
C[C@H]1COc2c(N3CCN(C)CC3)c(F)cc3c(=O)c(C(=O)O)cn1c23 [Levofloxacin, reference compound] |  | dose-dependent activity |  | 32 | dose-dependent activity | 8 | dose-dependent activity | >32 | dose-dependent activity | 92.3 ± 3.8 | 8 | 96.6 ± 2.2 | 92.6 ± 3.8 |  |  |  | 
CC[C@H](C)[C@@H]1NC(=O)CNC(=O)[C@H](CCCCN)NC(=O)[C@H](CC(N)=O)NC(=O)[C@H](CCCNC(=N)N)NC(=O)[C@H](C(C)C)NC(=O)[C@@H](NC(=O)[C@H](CO)NC(=O)[C@@H](NC(=O)[C@@H]2CCCN2C(=O)[C@@H](N)CC(N)=O)C(C)C)CSSC[C@@H]2NC(=O)[C@H](CCCCN)NC(=O)[C@H](C(C)C)NC(=O)[C@H](C)NC(=O)[C@H](CCCNC(=N)N)NC(=O)CNC(=O)[C@H](C(C)C)NC(=O)[C@@H]3CSSC[C@H](NC1=O)C(=O)N[C@@H](C(C)C)C(=O)N1CCC[C@H]1C(=O)N[C@@H]([C@@H](C)CC)C(=O)N[C@@H](CCCNC(=N)N)C(=O)N[C@@H](CSSC[C@@H](C(=O)N[C@@H](CCCNC(=N)N)C(=O)N[C@@H](CCCCN)C(=O)N[C@@H](CCCCN)C(=O)O)NC2=O)C(=O)N1CCC[C@H]1C(=O)NCC(=O)N[C@@H](CO)C(=O)N[C@@H](CCSC)C(=O)N[C@@H](CCCCN)C(=O)N[C@@H](CCC(N)=O)C(=O)N[C@@H]([C@@H](C)CC)C(=O)NCC(=O)N[C@@H]([C@@H](C)O)C(=O)N3 [TAP] (H-NPVSCVRNKGICVPIRCPGSMKQIGTCVGRAVKCCRKK-OH; disulfide 5-34, 12-27, 17-35 (inferred); N-terminus and C-terminus assumed) |  | resistant | pronounced growth |  |  |  |  |  |  | 94 ± 5.1 | 32 |  |  |  |  |  | 
CC[C@H](C)[C@H](N)C(=O)N[C@@H](CC(C)C)C(=O)N1CCC[C@H]1C(=O)N[C@@H](Cc1c[nH]c2ccccc12)C(=O)N[C@@H](CCCCN)C(=O)N[C@@H](Cc1c[nH]c2ccccc12)C(=O)N1CCC[C@H]1C(=O)N[C@@H](Cc1c[nH]c2ccccc12)C(=O)N[C@@H](Cc1c[nH]c2ccccc12)C(=O)N1CCC[C@H]1C(=O)N[C@@H](Cc1c[nH]c2ccccc12)C(=O)N[C@@H](CCCNC(=N)N)C(=O)N[C@@H](CCCNC(=N)N)C(N)=O [indolicidin] |  |  |  | 64 |  | 64 |  | 8 |  |  | 16 |  |  | 96.7 ± 1.7 | 92.9 ± 2.1 | 99.1 ± 0.6 | 90.5 ± 3.4
GIINTLQKYYCRVRGGRCAVLSCLPKEEQIGKCSTRGRKCCRRKK (disulfide 11-40, 18-33, 23-41 (inferred)) [hBD-3] |  | resistant | stronger growth | >64 | did not show antinocardial activity | >64 | more potent against N. nova than levofloxacin | 16 |  |  | 16 |  |  | 92.5 ± 5.3 |  |  | 95.2 ± 1.7
LAP: bovine β-defensin lingual antimicrobial peptide, synthesized and oxidatively folded (VRNSQSCRRNKGICVPIRCPGSMRQIGTCLGAQVKCCRRK; disulfide (positions not given here); UniProt Q28880 25-64, looked up) |  | resistant | pronounced growth | >64 |  |  |  |  |  | 92.9 ± 7.1 | 16 |  |  |  |  |  | 

Source: article PMC2834671, “Differential activity of innate defense antimicrobial peptides against Nocardia species” (BMC Microbiology, 2010)
